{"source": "patent US9920387B2", "about": "“Strain of marine oil-degrading bacteria, compounds obtained by fermentation and their applications” (THIRD INSTITUTE OF OCEANOGRAPHY,STATE OCEANIC ADMINISTRATION, priority 2014, dated 2018)", "key": {"[1]": {"experiment": "Liquid surface tension (automatic interfacial tensiometer)", "format": "physicochemical", "description": "Test method of liquid surface tension: Inoculate the Alcanivorax dieselolei T6-6 single bacterium into MSM medium on clean workbench (with 2% n-hexadecane as the sole carbon source), and culture it in constant temperature air bath shaker incubator (28° C., 200 rpm/min) until thalli obviously grow (about 3 to 5 days), during which take out 10 ml fermentation liquid every 24 hours, and measure its surface tension values using automatic interfacial tensiometer (Manufacturer: Chengde Precision Testing Machine Co., Ltd; Model: JZ-200-a automatic interface tensiometer). […] (For refrigeration of supernatant and hydrophobic layer stratified after centrifugation, the surface tension should be measured when it gets to the room temperature. Thus, the result is comparability and credibility). When measuring liquid surface tension, pour 10 ml fermentation liquid of A. dieselolei T6-6 at temperature of 25° C. into a weighing cup, place the weighing cup in the center of the tray, press “▴” to make the platinum ring deep into 5 mm to 7 mm in the liquid, press “●” to stop; if the peak needs to be kept, firstly press “peak” button, and then press “▾”, the display value will increase gradually, and finally stay at the maximum; this maximum value is the actually measured value of surface tension of liquid, and then press “●” to stop, after the maximum value is recorded, press “reset” button. […]"}, "[2]": {"experiment": "Determination of biosurfactant CMC values", "format": "physicochemical", "details": "for CMC: water solution", "from_the_text": "Determination method of biosurfactant CMC values: prepare different concentrations of water solution from pure biosurfactants to be determined, and measure its surface tension with surface tension meter. With the increase of surface activity (concentration), the surface tension of water solution gradually […]. The surface tension stops decreasing when the concentration increases to a certain level. The amount of surfactant corresponding to this critical surface tension is CMC value."}, "[3]": {"experiment": "Determination of biosurfactant MAD (Minimum Active Dose) by oil expansion experiment", "format": "physicochemical", "from_the_text": "Determination method of biosurfactant MAD (Minimum Active Dose) values: prepare different concentrations of water solution from pure biosurfactants to be determined, and measure the oil expansion activity through oil expansion experiment. With the decrease of concentration, the oil expansion ability of water solution becomes weaker and weaker, and completely disappears when the concentration decreases to a certain level. The amount of surfactant at the time of oil expansion ability disappearing is the MAD value."}, "[4]": {"experiment": "Biosurfactant emulsifying property (emulsion stable value)", "format": "physicochemical", "description": "In order to understand the emulsifying activity of lysine ester produced by strain Alcanivorax dieselolei T6-6, we determined the emulsifying stability value of lysine ester produced by strain Alcanivorax dieselolei T6-6 and the chemical surfactants Tween 20 and Triton X-100 against olive oil, n-hexane, dimethylbenzene, hexadecane and petroleum ether. Determination method of biosurfactant emulsifying property: add 5 ml commercially available diesel No. 0 and 5 ml surfactant solution (1%) into a test tube, treat it with ultrasonic generator at 800 W for 40 s, and measure the emulsion and oil phase at different times (0 to 24 hours). Emulsion stable value (Es %)=emulsified layer height (cm)/oil phase height (cm)×100. […] Lysine ester produced by strains Alcanivorax dieselolei T6-6 has a good emulsifying activity (83±1%) on olive oil, and can maintain […] at room temperature. Its emulsifying activity on four other organics is also more than 75%. Good emulsifying activity makes it greatly valuable in environmental pollution control."}, "[5]": {"experiment": "Oil expansion activity at different temperatures and pH values", "format": "physicochemical", "description": "Determination method of biosurfactant oil expansion activity: Take a culture dish, add water, and add 0.1 ml hexadecane on the water surface to form oil film. Add the fermentation liquid from the shake flask to the center of oil film to make the central film squeezed to form a circle, the diameter of which positively correlates to the concentration and activity of the biosurfactant. Strains with cycle diameter more than 3 cm are retained for further study. Set pH value in the range of 2 to 10 to determine effect of pH on lysine ester produced by the strain Alcanivorax dieselolei T6-6. Oil expansion diameter varies from 3.6 to 3.9 for lysine ester produced by the strain Alcanivorax dieselolei T6-6 with small fluctuation. It has a good acid and base resistance, and the activity is the highest at pH=8. Considering the structure, it can be inferred that this material is alkaline. And also, when adding a few drops of ammonia expansion on the running TLC plate, the substance will expand more fully, which also proves that it is alkaline.\nTreat the pure lysine ester produced by strain Alcanivorax dieselolei T6-6 at temperatures of 20° C., 40° C., 60° C., 80° C. and 100° C. for one hour, and then determine its activity. […] Good thermal stability makes it possible for the substance to be used in high temperature fields."}, "[6]": {"test_system": "Bacillus plakortidis", "experiment": "Antibacterial activity, filter paper method", "format": "cell-based", "details": "28° C.", "from_the_text": "(§1) Antibacterial activity test method: use filter paper method to detect antibacterial activity of biosurfactant produced by fermentation of strain Alcanivorax dieselolei T6-6. The indicator bacteria are Gram-negative bacteria, Gram-positive bacteria, endophytic pathogenic fungus in tea tree and yeasts. Specific steps: coat the well-shaken indicator bacteria on the culture plate, stick filter paper on each scribe region, and drip surfactant on filter paper. The control group is the methanol solvent of same amount. After bacteria are inverted cultured in constant temperature incubation at 28° C. for a certain period (different indicator bacteria have different growth cycles; bacteria grow quickly, but endophytic fungus in tea tree should grow 3-5 days), and observe the results to detect inhibition zone. If there is an inhibition zone, its size should be measured."}, "[7]": {"test_system": "Bacillus rhizosphaerae", "experiment": "Antibacterial activity, filter paper method", "format": "cell-based", "details": "28° C.", "from_the_text": "as §1"}, "[8]": {"test_system": "Bacillus safensis", "experiment": "Antibacterial activity, filter paper method", "format": "cell-based", "details": "28° C.", "from_the_text": "as §1"}, "[9]": {"test_system": "Bacillus thuringiensis", "experiment": "Antibacterial activity, filter paper method", "format": "cell-based", "details": "28° C.", "from_the_text": "as §1"}, "[10]": {"test_system": "Lysinibacillus sphaericus", "experiment": "Antibacterial activity, filter paper method", "format": "cell-based", "details": "28° C.", "from_the_text": "as §1"}, "[11]": {"test_system": "Ornithinibacillus bavariensis", "experiment": "Antibacterial activity, filter paper method", "format": "cell-based", "details": "28° C.", "from_the_text": "as §1"}, "[12]": {"test_system": "Pestalotiopsistheae", "experiment": "Antibacterial activity, filter paper method", "format": "cell-based", "details": "28° C.", "from_the_text": "as §1"}, "[13]": {"test_system": "Phomaexigua var. exigua", "experiment": "Antibacterial activity, filter paper method", "format": "cell-based", "details": "28° C.", "from_the_text": "as §1"}, "[14]": {"test_system": "Rhodotorula mucilaginosa", "experiment": "Antibacterial activity, filter paper method", "format": "cell-based", "details": "28° C.", "from_the_text": "as §1"}, "[15]": {"test_system": "Campbell vibrio", "experiment": "Antibacterial activity, filter paper method", "format": "cell-based", "details": "bacteriostasis experiment", "from_the_text": "as §1\n(§2) DH5 alpha, aeromonas hydrophila and Campbell vibrio."}, "[16]": {"test_system": "E. coli. DH5 alpha", "experiment": "Antibacterial activity, filter paper method", "format": "cell-based", "details": "bacteriostasis experiment", "from_the_text": "as §1, §2"}, "[17]": {"test_system": "aeromonas hydrophila", "experiment": "Antibacterial activity, filter paper method", "format": "cell-based", "details": "bacteriostasis experiment", "from_the_text": "as §1, §2"}, "[18]": {"test_system": "hepatoma cells 7402", "experiment": "Cytotoxic activity test, Cell Counting Kit-8", "format": "cell-based", "details": "100 ug/ml, 48 hours", "from_the_text": "(§3) Cytotoxic activity test method: measure cytotoxic activity using a Cell Counting Kit-8 (CCK-8 kit for short and of Dojindo Laboratories, Japan), namely, […]. The human CCK octapeptide ELISA is a quick high-sensitivity detection kit based on WST-8 and widely applied to cell proliferation and cytotoxic activity. WST-8 is a compound similar to the MTT. With the presence of electronic coupling reagent, WST-8 can be reduced by some dehydrogenases in mitochondria and produce orange formazan. The more and faster the cell proliferation is, the deeper the color; the greater the cytotoxicity is, the lighter the color. For the same cells, the color depth has a linear relationship with the number of cells. Solvent DMSO is used in control group, and pure lysine ester produced by strain Alcanivorax dieselolei T6-6 dissolved in DMSO are used in experimental group. Cells are hepatoma cells 7402 and normal hepatocytes 7702 (available from Sino-US Joint Venture Biohermes Biomedical Technology Ltd). Medicinal concentration is 100 ug/ml, and operation is taken according to kit instruction, with each step repeated three times. After medication, […] is detected in cellular fluid after culturing for 48 hours. Cell toxicity results are shown in Table 8: The medicine-to-cell suppression rate=[negative group (DMSO)−experimental group (dosed)]/negative group (DMSO). […] Accordingly, the active substances of lysine ester generated by the strain Alcanivorax dieselolei T6-6 have better cytotoxic activity."}, "[19]": {"test_system": "normal hepatocytes 7702", "experiment": "Cytotoxic activity test, Cell Counting Kit-8", "format": "cell-based", "details": "100 ug/ml, 48 hours", "from_the_text": "as §3"}}, "note": "*1 amine or outer side, *2 acyl side, *3 side chain or, on linkers, in order; H or OH if unused. Where a SMILES comes first, the peptide text is derived from it. Bridges are numbered along the chain shown (N, C = ends). [ ]: non-standard residue; d: D form. X1 = CC(C)CCCCCCCCC[C@H](CC(=O)[*:1])O[*:2]"}
{"compound": "CCCCCCCCCCCCCC1CC(=O)N1CCCCC(N)C(=O)O", "note": "(centres unmarked) [2-amino-6-(2-oxo-4-tridecyl-azetidine-1-yl) hexanoic acid]", "values": [{"measurement": "surface tension of water after adding component", "setting": "[1]; 300 ul unconcentrated surfactant added to 20 ml DDW, water alone 78.6", "result": 32.3}, {"measurement": "surface tension reduced to", "setting": "[1]; summary statement", "result": "26-28 mN m-1"}, {"measurement": "CMC value", "setting": "[2]; summary statement", "result": 32, "unit": "mg 1-1"}, {"measurement": "CMC", "setting": "[2]", "result": 32, "unit": "mg/L"}, {"measurement": "MAD", "setting": "[3]", "result": "0.105 ± 0.05", "unit": "µg"}, {"measurement": "emulsifying activity compared with Tween 20 and Triton X-100", "setting": "[4]; FIG. 12", "result": "higher emulsifying activity"}, {"measurement": "emulsifying activity (emulsion stable value)", "setting": "[4]; four other organics (n-hexane, dimethylbenzene, hexadecane, petroleum ether)", "result": "more than 75%"}, {"measurement": "emulsifying activity (emulsion stable value)", "setting": "[4]; olive oil", "result": "83±1", "unit": "%"}, {"measurement": "time emulsion is maintained", "setting": "[4]; olive oil, room temperature", "result": 48, "unit": "h"}, {"measurement": "pH of highest activity", "setting": "[5]; oil expansion experiment, pH 2 to 10", "result": 8}, {"measurement": "oil expansion diameter", "setting": "[5]; treated at 121° C. for 15 minutes", "result": "about 3.5 cm"}, {"measurement": "Inhibition zone", "setting": "[6]", "result": 13.7, "unit": "mm"}, {"measurement": "Inhibition zone", "setting": "[7]", "result": 10.4, "unit": "mm"}, {"measurement": "Inhibition zone", "setting": "[8]", "result": 10.9, "unit": "mm"}, {"measurement": "Inhibition zone", "setting": "[9]", "result": 7.2, "unit": "mm"}, {"measurement": "Inhibition zone", "setting": "[10]", "result": 11.7, "unit": "mm"}, {"measurement": "Inhibition zone", "setting": "[11]", "result": 14.2, "unit": "mm"}, {"measurement": "Inhibition zone", "setting": "[12]", "result": 10.19, "unit": "mm"}, {"measurement": "Inhibition zone", "setting": "[13]", "result": 16.3, "unit": "mm"}, {"measurement": "Inhibition zone", "setting": "[14]", "result": 12.1, "unit": "mm"}, {"measurement": "suppression effect", "setting": "[15]", "result": "no suppression effect"}, {"measurement": "suppression effect", "setting": "[16]", "result": "no suppression effect"}, {"measurement": "suppression effect", "setting": "[17]", "result": "no suppression effect"}, {"measurement": "medicine-to-cell suppression rate", "setting": "[18]", "result": 92.74, "unit": "%"}, {"measurement": "cell culture fluid OD600", "setting": "[18]; DMSO control 1.667", "result": 0.121}, {"measurement": "medicine-to-cell suppression rate", "setting": "[19]", "result": 67.32, "unit": "%"}, {"measurement": "cell culture fluid OD600", "setting": "[19]; DMSO control 0.863", "result": 0.282}]}
{"compound": "CCCCCCCCCCCCOS(=O)(=O)[O-].[Na+]", "note": "[SDS]", "values": [{"measurement": "CMC", "setting": "[2]", "result": 23, "unit": "mg/L"}, {"measurement": "MAD", "setting": "[3]", "result": "6.0 ± 0.12", "unit": "µg"}]}
{"compound": "CC(C)CCCCCCCCC[C@@H]1CC(=O)N[C@@H](CCC(=O)O)C(=O)N[C@@H](CC(C)C)C(=O)N[C@H](CC(C)C)C(=O)N[C@@H](C(C)C)C(=O)N[C@@H](CC(=O)O)C(=O)N[C@H](CC(C)C)C(=O)N[C@@H](CC(C)C)C(=O)O1", "note": "[Surfactin] (EL[dL]VD[dL]L; linker N-C via X1)", "values": [{"measurement": "CMC", "setting": "[2]", "result": 45, "unit": "mg/L"}]}
{"compound": "Rhamnolipid", "values": [{"measurement": "CMC", "setting": "[2]", "result": 50, "unit": "mg/L"}]}
{"compound": "Triton X-100", "values": [{"measurement": "MAD", "setting": "[3]", "result": "0.3 ± 0.08", "unit": "µg"}]}
